For one data set, the system named is B16F10 tumour. As to the kind of experiment: In vivo test, survival of mice with transplanted B16F10 tumour. Also on record: species or system mouse. The following applies: 5 mg/kg, treated daily. As to the method: Mice are inoculated with 5×10^6 B16F10 tumour cells on day 0. The animals in which tumour cells are transplanted develop solid peritoneal tumours and are then treated daily with test substances or with the vehicle control. In the control group, 50% of the animals usually die between day 14 and 20. The test substances are administered in buffer or an organic solvent system comprising 20% methanol and 20% dimethyl sulphoxide in 0.7% sodium chloride solution.
The therapeutic result arises from the prolonging of the survival time of the treated animals. […] A therapeutic index can be estimated from the tolerance and prolonging of the survival time.

A further data set concerns SW 480. Description: Growth inhibition test (MTT) for cytotoxic properties. The class given is cell-based, human. The essentials: (§1)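 IC50 values come from an MTT read at 540 nm (5 h at 37 °C, 5 mg/ml MTT stock), taken on day 3 and day 6. Cells (HT 29, SW 480; 50,000 cells/ml in RPMI/10% FCS) were pre-cultured 1 day, then compound in DMSO was added.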
A further data set deals with HT 29. The data set is described as above. The class given is cell-based, human. The essentials: as §1
Data set [1] in a line: Acute toxicity, single administration. The class given is in vivo, nu/nu naked mice. To be noted: for acute toxicity detected: dose of 400 mg/kg; for acute toxicity detected / individual dose of the substances which can be tolerated: single administration; for Individual dose tolerated in mg/kg of mouse, i.v.: single administration i.v., aqueous solution; for Individual dose tolerated in mg/kg of mouse, i.p.: single administration i.p., solution in dimethyl sulphoxide. On the procedure: Determination of the Acute Toxicity of Glycoconjugates of Batracyline (Single Administration)
The acute toxicity of the batracyline derivatives was determined on nu/nu naked mice.
The substances administered i.v., as aqueous solutions, and the substances administered i.p., as solutions in dimethyl sulphoxide, were injected once in concentrations of up to 400 mg of substance per kg of mouse.
The individual dose tolerated was calculated from the decrease in the weight of the animals up to 21 days after administration and from the number of animals surviving.

In a further data set the test system is B 16 F 10. As to the kind of experiment: Growth inhibition test (MTT) for cytotoxic properties. The class given is cell-based, mouse. To be noted: Table 1b. As to the method:
Growth Inhibition Test for Determination of the Cytotoxic Properties of Glycoconjugates of Batracyline and of Quinolone-a
The human colon cell lines SW 480 and HT 29 (ATCC no. CCL 228 and HBT-38) and the mouse melanoma cell line B 16 F 10 were cultured in Roux dishes in RPMI 1640 medium with addition of 10% FCS. The cultures were then trypsinized and taken up in RPMI plus 10% FCS to a cell count of 50,000 cells/ml. 100 μl of cell suspension/well were introduced into a 96 microwell plate and incubated for 1 day at 37° C. in a CO2 incubating cabinet. A further 100 μl of RPMI medium and 1 μl of dimethyl sulphoxide with the test substances were then added. The growth was checked after day 3 and day 6. 40 μl of MTT solution (3-(4,5-dimethylthiazol-2-yl)-2,5-diphenyltetrazoline bromide) with an initial concentration of 5 mg/ml of H2 O were added to each microwave. The plate was incubated for 5 hours in a CO2 incubating cabinet at 37° C. The medium was then sucked off and 100 μl of i-propanol/well were added. After shaking for 30 minutes with 100 μl of H2 O, the extinction was measured at 540 nm with a Titertek Multiskan MCC/340 (Flow).

[2] abbreviates: Table 1a, glycoconjugates of batracyline.

For orientation: IC50 means the concentration at which inhibition is half-maximal. Lower therefore signals higher potency.

Counter-ions that a name gives are not always drawn.

With `COc1cc([C@@H]2c3cc4c(cc3[C@@H](O[C@@H]3O[C@@H]5CO[C@@H](C)O[C@H]5[C@H](O)[C@H]3O)[C@H]3COC(=O)[C@H]23)OCO4)cc(OC)c1O` [Etoposide, reference compound], in the data set on B16F10 tumour, the “% survivors Day 0” value is given as 100%, the “% survivors Day 20” value was determined as 90%, the “% survivors Day 25” value was found to be 80% and the “% survivors Day 30” value came out at 80%. In addition, the “% survivors Day 35” value with B16F10 tumour stood at 70%.
`CC(NC(=O)C(N)CCCCNC(=S)Nc1ccc(OC2OC(CO)C(O)C(OCC(=O)[O-])C2O)cc1)C(=O)Nc1ccc2c(c1)CN1C(=O)c3ccccc3C1=N2.[Na+]` [Example 3.33, N-{N^ε -[O-(3-O-Carboxymethyl-β-D-galactopyranosyl)-4-hydroxy-phenylamino-thiocarbonyl]-lysyl-D-alanyl}-batracyline, sodium salt] registered an IC50 in the data set on SW 480 (setting [2]) of 90 µM. The compound also had an IC50 in the data set on HT 29 (setting [2]) of 70 µM. Further, in data set [1], the acute toxicity detected result was “no acute toxicity”; the “individual dose of the substances which can be tolerated” value was “more than 200 mg of substance per kg of mouse”; the “Individual dose tolerated in mg/kg of mouse, i.v.” value is recorded as > 400 mg/kg of mouse.
For `CC(NC(=O)C(CCCCNC(=S)Nc1ccc(OC2OC(CO)C(O)C(OCC(=O)[O-])C2O)cc1)NC(=S)Nc1ccc(OC2OC(CO)C(O)C(OCC(=O)[O-])C2O)cc1)C(=O)Nc1ccc2nc3n(c(=O)c2c1)Cc1ccccc1-3.[Na+].[Na+]` [Example 6.81, N-{N^α,N^ε -Bis-[O-(3-O-carboxymethyl-β-D-galactopyranosyl)-4hydroxy-phenylamino-thiocarbonyl]-lysyl-D-alanyl}-batracyline, di-sodium salt] the same measures were 30 µM, 30 µM, “no acute toxicity”, “more than 200 mg of substance per kg of mouse” and > 400 mg/kg of mouse.
On to `CO[C@H]1[C@H](O)[C@@H](Oc2ccc(Nc3nc(NCCO)nc(NCCCC[C@H](N)C(=O)N[C@H](C)C(=O)Nc4ccc5c(=O)n6c(nc5c4)-c4ccccc4C6)n3)cc2)O[C@@H](C)[C@H]1O.O=C(O)C(F)(F)F` [Example 8.2, N-{N^ε -[4-Hydroxyethylamino-2-[O-(3-O-methyl-β-L-fucosyl)-4-hydroxy-phenylamino]-triazin-6-yl]-lysyl-D-alanyl}-batracyline, trifluoroacetate], for which, in data set [1], the “individual dose of the substances which can be tolerated” value is “more than 200 mg of substance per kg of mouse” and the “Individual dose tolerated in mg/kg of mouse, i.p.” value (“Individual dose tolerated … i.p.” below) is on record as > 200 mg/kg of mouse.
As to `CCC1(OC(=O)C(C)NC(=O)C(CCCCNC(=S)Nc2ccc(OC3OC(C)C(O)C(OC)C3O)cc2)NC(=S)Nc2ccc(OC3OC(C)C(O)C(OC)C3O)cc2)C(=O)OCc2c1cc1n(c2=O)Cc2cc3ccccc3nc2-1` [Example 18.1, 20-O-{N^α,N^ε -Bis-[O-(3-O-methyl-β-L-fucopyranosyl)-4-hydroxy-phenylamino-thiocarbonyl]-lysyl-alanyl}-camptothecin], the values for the IC50 in the data set with B 16 F 10, with SW 480 (Table 1b) and with HT 29 (Table 1b) were 0.2 µM, 0.03 µM and 0.01 µM, respectively.
As for `CCC1(OC(=O)C(C)NC(=O)C(CCCCN)NC(=S)Nc2ccc(OC3OC(C)C(O)C(OCC(=O)O)C3O)cc2)C(=O)OCc2c1cc1n(c2=O)Cc2cc3ccccc3nc2-1` (stereo not drawn) [Example 18.2, 20-O-{N^α -[O-(3-O-Carboxymethyl-β-fucopyranosyl)-4hydroxy-phenylamino-thiocarbonyl]-lysyl-alanyl}-camptothecin], the IC50 in the data set with B 16 F 10 turned out to be 0.2 µM; with SW 480 (Table 1b), 0.02 µM; in the data set on HT 29 (Table 1b), 0.02 µM.
On to `CCC1(OC(=O)C(C)NC(=O)C(CCCCNC(=S)Nc2ccc(OC3OC(C)C(O)C(OC)C3O)cc2)NC(=S)Nc2ccc(OC3OC(C)C(O)C(OC)C3O)cc2)C(=O)OCc2c1cc1n(c2=O)Cc2cc3ccccc3nc2-1` [Example 18.4, 20-O-{N^α,N^ε -Bis-[O-(3-O-methyl-β-L-fucopyranosyl)-4-hydroxy-phenylamino-thiocarbonyl]-lysyl-D-alanyl}-camptothecin], for which the results for the IC50 in the data set with B 16 F 10, with SW 480 (Table 1b) and in the data set on HT 29 (Table 1b) were 0.3 µM, 0.02 µM and 0.02 µM, respectively.
Take `CCC1(OC(=O)C(NC(=O)C(CCCCNC(=S)Nc2ccc(OC3OC(C)C(O)C(OC)C3O)cc2)NC(=S)Nc2ccc(OC3OC(C)C(O)C(OC)C3O)cc2)C(C)C)C(=O)OCc2c1cc1n(c2=O)Cc2cc3ccccc3nc2-1` [Example 18.5, 20-O-{N^α,N^ε -Bis-[O-(3-O-methyl-β-L-fucopyranosyl)-4-hydroxy-phenylamino-thiocarbonyl]-lysyl-valinyl}-camptothecin]: the IC50 with B 16 F 10 is 1 µM; in the data set on SW 480 (Table 1b), 0.2 µM; with HT 29 (Table 1b), 0.2 µM.
For the compound `CCC1(OC(=O)[C@@H](NC(=O)[C@H](CCCCN)NC(=S)Nc2ccc(O[C@H]3O[C@@H](C)[C@@H](O)[C@@H](OCC(=O)O)[C@@H]3O)cc2)C(C)C)C(=O)OCc2c1cc1n(c2=O)Cc2cc3ccccc3nc2-1` (stereo partly drawn) [Example 18.9, 20-O-{N^α [O-(3-O-Carboxymethyl-β-L-fucopyranosyl)-4-hydroxy-phenylamino-thiocarbonyl]-lysyl-valinyl}-camptothecin, hydrochloride], the IC50 in the data set on B 16 F 10 was found to be 0.7 µM; in the data set with SW 480 (Table 1b) it was 0.08 µM; in the data set with HT 29 (Table 1b) it was 0.06 µM.
As for `CC[C@@]1(OC(=O)[C@H](C)NC(=O)[C@H](CCCCN)NC(=S)Nc2ccc(O[C@H]3O[C@@H](C)[C@@H](O)[C@@H](OC)[C@@H]3O)cc2)C(=O)OCc2c1cc1n(c2=O)Cc2cc3ccccc3nc2-1` [Example 18.14, 20-O-{N^α -[O-(3-O-Methyl-β-L-fucopyranosyl)-4-hydroxy-phenylamino-thiocarbonyl]-lysyl-alanyl}-camptothecin, hydrochloride], the values for the concentration for half-maximal inhibition (IC50) in the data set with B 16 F 10, in the data set with SW 480 (Table 1b) and with HT 29 (Table 1b) were 0.08 µM, 0.015 µM and 0.01 µM, respectively.
In the case of “N-[Lysyl-D-alanyl]-batracyline, di-trifluoroacetate [Example 2.13]”, in data set [1], the “Individual dose tolerated … i.p.” value was 50 mg/kg of mouse and the “Individual dose tolerated in mg/kg of mouse, i.v.” value is on record as 25 mg/kg of mouse.
Regarding “N-{N^α,N^ε -Bis-[O-(β-L-fucosyl)-4-hydroxy-phenylamino-thiocarbonyl]-lysyl-D-ala nyl}-batracyline [Example 6.14]”, in data set [1], the acute toxicity detected result is “no acute toxicity”; the “individual dose of the substances which can be tolerated” value is “more than 200 mg of substance per kg of mouse”; the “Individual dose tolerated … i.p.” value is > 400 mg/kg of mouse.
“N-{N^ε -[O-(3,4-Di-O-methyl-β-D-galactopyranosyl)-4-hydroxy-phenylamino-thio carbonyl]-lysyl-D-alanyl}-batracyline, trifluoroacetate [Example 3.16]”: in data set [1], the “individual dose of the substances which can be tolerated” value is listed as “more than 200 mg of substance per kg of mouse” and the “Individual dose tolerated … i.p.” value is given as > 200 mg/kg of mouse.

For the origin of these results see patent publication US6271342A, “Sugar-modified cytostatics” (Bayer Aktiengesellschaft, priority 1995, dated 2001).
